Source: patent US20170296611A1, “Pharmaceutical Compositions Comprising Extracts of Sarcopoterium Spinosum, Components Thereof, and Uses Thereof” (Diabest Botanical Drugs Ltd., priority 2009, published 2017)

How the values were obtained:
Format in all cases: cell-based
[1] = test system: GSK3β ser-9 phosphorylation; assay: GSK3β phosphorylation in L6 myotubes (Western blot / ELISA); details: insulin 100 nM, 20 min
Experimental: L6 myoblasts were grown in MEM-α containing 25 mM glucose, 10% FCS, 2 mM glutamine and 1% ampicillin. Experiments were performed on differentiated myotubes. In order to induce differentiation, myoblasts were incubated in MEM-α containing 25 mM glucose and 2% FCS for 4 days, followed by an additional 24 h incubation in a MEM-α starvation medium containing 5 mM glucose and 2% FCS. AML-12, a nontransformed hepatocyte cell line were maintained in DMEM containing 25 mM glucose, 10% FCS, 2 mM glutamine and 1% ampicillin. […] Protein lysates were prepared using cell extraction buffer supplemented with protease and phosphatase inhibitors. The samples were homogenized and centrifuged at 14,000 rpm for 20 min. The supernatant was collected and protein concentration was measured using the Bradford method. 20 μg protein per lane was separated by SDS-polyacrylamide gel electrophoresis. Proteins were electrophoretically transferred onto nitrocellulose membranes. The membranes were blocked in 10% dry milk, incubated with the appropriate antibodies and immunodetected using the enhanced chemiluminescence method. Differentiated L6 myotubes were treated with 100 nM insulin or composition (S. spinosum extract diluted to 0.1% V/V) for 20 min. Protein lysates were prepared using cell extraction buffer. […] GSK-3β phosphorylation was measured using the ELISA detection kit. […]

3T3-L1 adipocytes = assay: Free fatty acid release (lipolysis) assay in 3T3-L1 adipocytes
Experimental: 3T3-L1 pre-adipocytes were cultured and differentiated as described in references 8 as well as 16, 19, 20 and 21. Briefly, cells were grown to confluence in Dulbecco's Modified Eagle's Medium (DMEM) containing 10% fetal calf serum (FCS), 2 mM glutamine and 1% ampicillin. Two days after full confluence, the cells were induced to differentiate by 3 days incubation in DMEM containing 10% FCS, 0.5 mM isobutylmethylxanthine (IBMX), 1 μM dexamethasone and 100 nM insulin. This was followed by 2 days of incubation in DMEM containing 10% FCS and 100 nM insulin. The cells were grown for an additional 5-9 days in DMEM containing 10% FCS. […] Differentiated adipocytes were preincubated for 12 hours in DMEM containing 2% fatty acid-free bovine serum albumin, in the absence of FCS. Lipolysis was stimulated by treating cells with 10 μM isoproterenol for 1 hour, in the absence or presence of insulin (100 nM) or a composition (S. spinosum extract diluted to 0.001-1% V/V). Free fatty acids (FFA) released into the culture media were measured immediately using a NEFA-C kit, according to the kit instructions. Lipolysis was induced using the adrenergic agonist isoproterenol in order to analyze the extract's effect on lipolysis, and the effect of compositions comprising S. spinosum extract on isoproterenol-induced lipolysis measured, with insulin as a positive control. Differentiated adipocytes (3T3-L1) were treated with insulin (100 nM) or a composition comprising 1% (V/V) S. spinosum extract with or without the addition of isoproterenol (10 μM) for 60 min. Free fatty acid (FFA) concentration was measured […].

[2] = test system: AML12 hepatocyte cell line; assay: [3H]2-deoxy-D-glucose uptake in hepatocytes; details: insulin 100 nM
Experimental: (§1) L6 myoblasts were grown in MEM-α containing 25 mM glucose, 10% FCS, 2 mM glutamine and 1% ampicillin. Experiments were performed on differentiated myotubes. In order to induce differentiation, myoblasts were incubated in MEM-α containing 25 mM glucose and 2% FCS for 4 days, followed by an additional 24 h incubation in a MEM-α starvation medium containing 5 mM glucose and 2% FCS. AML-12, a nontransformed hepatocyte cell line were maintained in DMEM containing 25 mM glucose, 10% FCS, 2 mM glutamine and 1% ampicillin. Differentiated adipocytes, L6 myoblasts and AML12 cells were each preincubated for 6 hours in low glucose (4.5 mM), serum-free DMEM containing 1% BSA, and then treated with either 100 nM insulin or compositions comprising different concentrations of S. spinosum extract (0.001-1% V/V). Glucose uptake was measured in triplicate samples in six-well plates using [^3H]2-deoxy-D-glucose (1 mCi/ml; American Radiolabeled Chemicals, St. Louis, Mo., USA). […] Samples were counted in the ^3H window of a Tricarb scintillation counter. […] The effect of S. spinosum compositions on glucose uptake was measured in the AML12 hepatocyte cell line, L6 skeletal myoblasts and in differentiated 3T3-L1 adipocytes, and compared to the effect of insulin. […] The uptake of [^3H]2-deoxy-D-glucose into cells was determined as described in the Materials and Methods section.

L6 myoblasts = assay: [3H]2-deoxy-D-glucose uptake in L6 myoblasts; details: insulin 100 nM
Experimental: as §1

[3] = test system: differentiated 3T3-L1 adipocytes; assay: [3H]2-deoxy-D-glucose uptake in 3T3-L1 adipocytes; details: insulin 100 nM
Experimental: 3T3-L1 pre-adipocytes were cultured and differentiated as described in references 8 as well as 16, 19, 20 and 21. Briefly, cells were grown to confluence in Dulbecco's Modified Eagle's Medium (DMEM) containing 10% fetal calf serum (FCS), 2 mM glutamine and 1% ampicillin. Two days after full confluence, the cells were induced to differentiate by 3 days incubation in DMEM containing 10% FCS, 0.5 mM isobutylmethylxanthine (IBMX), 1 μM dexamethasone and 100 nM insulin. This was followed by 2 days of incubation in DMEM containing 10% FCS and 100 nM insulin. The cells were grown for an additional 5-9 days in DMEM containing 10% FCS. […] Glucose uptake was measured in triplicate samples in six-well plates using [^3H]2-deoxy-D-glucose (1 mCi/ml; American Radiolabeled Chemicals, St. Louis, Mo., USA). […] Samples were counted in the ^3H window of a Tricarb scintillation counter. […] The effect of S. spinosum compositions on glucose uptake was measured in the AML12 hepatocyte cell line, L6 skeletal myoblasts and in differentiated 3T3-L1 adipocytes, and compared to the effect of insulin. […] The uptake of [^3H]2-deoxy-D-glucose into cells was determined as described in the Materials and Methods section.

Compound | increase in GSK3β ser-9 phosphorylation compared to the control [1] [fold] | isoproterenol-induced free fatty acid release (3T3-L1 adipocytes; isoproterenol 10 μM, 60 min, insulin 100 nM) [mM FFA/mg protein] | free fatty acid release (3T3-L1 adipocytes; unstimulated adipocytes (no isoproterenol)) | increase in glucose uptake [2] [%] | increase in glucose uptake (L6 myoblasts) [%] | increase in glucose uptake [3] [%] | free fatty acid release (lipolysis) (3T3-L1 adipocytes; isoproterenol 10 μM for one hour alone) [mM FFA/mg protein]
insulin | 4 | 0.47±0.16 | not affected | 160±12 | 146±11.26 | 167±13 | 
CC(C)NCC(O)c1ccc(O)c(O)c1 (stereo not shown) [isoproterenol, Isoproterenol, reference compound] |  |  |  |  |  |  | 4.23±3.01
